What was measured:
[1] = DPPH antioxidant activity assay
Description: To evaluate four synthesized compounds and Trolox (as a positive control), a 1 mg/mL concentration in methanol was first made from phenyl alcohol. The prepared solution was produced in concentrations of 1, 2, 3, 5, 7, 10, 20, 30, 50, and 80 µg/mL. The DPPH reagent was then diluted in 0.002% w/v methanol and combined in a […] ratio with the previously produced working concentrations. A blank solution of 100% methanol was used. All solutions were incubated at room temperature for 30 min in a dark environment. Their absorbance values were then determined using a UV-visible spectrophotometer set at a wavelength of 517 nm. The antioxidant capacity of each chemical compound fraction and Trolox were calculated using the following formula:% inhibition = ((Abs blank − Abs Sample)/Abs Blank) × 100 where:
Abs blank: Absorbance value of the control reaction containing all reagents except the synthesized compound.
Abs sample: The absorbance value of the synthesized compound [48].

[2] = target: T1, porcine pancreatic α-amylase (Sus scrofa, UniProt P00690); experiment: α-Amylase inhibition assay (DNSA); format: biochemical
T1 construct: purchased MP Biochemicals (Illkirch, France)
T1 sequence (P00690 16-511): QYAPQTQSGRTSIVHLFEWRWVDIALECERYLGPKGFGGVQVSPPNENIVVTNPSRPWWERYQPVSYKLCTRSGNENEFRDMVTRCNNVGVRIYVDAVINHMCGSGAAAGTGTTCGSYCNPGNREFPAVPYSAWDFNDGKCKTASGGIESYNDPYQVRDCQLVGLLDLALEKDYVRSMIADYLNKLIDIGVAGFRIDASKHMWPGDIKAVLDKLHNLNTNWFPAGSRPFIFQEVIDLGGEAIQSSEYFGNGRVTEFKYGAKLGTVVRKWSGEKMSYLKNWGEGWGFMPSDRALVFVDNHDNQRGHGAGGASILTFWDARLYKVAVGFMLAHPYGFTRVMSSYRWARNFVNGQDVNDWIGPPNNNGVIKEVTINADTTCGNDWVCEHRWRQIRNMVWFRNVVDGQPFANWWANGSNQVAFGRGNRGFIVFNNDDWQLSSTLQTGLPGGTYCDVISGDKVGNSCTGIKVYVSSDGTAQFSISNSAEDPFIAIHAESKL
Description: Each product was initially dissolved in a few milliliters of 10% DMSO and then further diluted in a buffer solution (0.02 M Na2HPO4/NaH2PO4, 0.006 M NaCl, at pH 6.9) to prepare stock solutions at a concentration of 1000 µg/mL. From these stock solutions, further dilutions were made to obtain concentrations of 20, 50, and 70 µg/mL, using 10% DMSO as a diluent. A porcine pancreatic α-amylase enzyme solution was prepared at 2 units/mL concentration in 10% DMSO. For the working solutions, 0.2 mL of the enzyme solution was mixed with 0.2 mL of each product, and the mixture was incubated for 10 min at 30 °C. Following the incubation, 0.2 mL of a freshly prepared 1% starch aqueous solution was added to each working solution, which was then incubated for an additional 3 min. The reaction was halted by adding 0.2 mL of dinitrosalicylic acid (DNSA) yellow color reagent. Each working solution was diluted with 5 mL of distilled water and boiled for 10 min in a water bath at 90 °C. After cooling the mixture to room temperature, the absorbance was measured at 540 nm. The blank control was prepared similarly but replaced the product fraction with 0.2 mL of the buffer as mentioned above. Acarbose was used as the standard reference and was subjected to the same experimental procedures. The α-amylase inhibitory activity was calculated using the following equation [49]:% of α amylase inhibition = (AB − AE)/AB × 100%

COX-1 = target: T2, COX-1 (Homo sapiens, UniProt P23219); experiment: COX (human) Inhibitor Screening Assay, COX-1; format: biochemical
T2 construct: purchased Cayman Chemicals 701230
T2 sequence (P23219 24-599): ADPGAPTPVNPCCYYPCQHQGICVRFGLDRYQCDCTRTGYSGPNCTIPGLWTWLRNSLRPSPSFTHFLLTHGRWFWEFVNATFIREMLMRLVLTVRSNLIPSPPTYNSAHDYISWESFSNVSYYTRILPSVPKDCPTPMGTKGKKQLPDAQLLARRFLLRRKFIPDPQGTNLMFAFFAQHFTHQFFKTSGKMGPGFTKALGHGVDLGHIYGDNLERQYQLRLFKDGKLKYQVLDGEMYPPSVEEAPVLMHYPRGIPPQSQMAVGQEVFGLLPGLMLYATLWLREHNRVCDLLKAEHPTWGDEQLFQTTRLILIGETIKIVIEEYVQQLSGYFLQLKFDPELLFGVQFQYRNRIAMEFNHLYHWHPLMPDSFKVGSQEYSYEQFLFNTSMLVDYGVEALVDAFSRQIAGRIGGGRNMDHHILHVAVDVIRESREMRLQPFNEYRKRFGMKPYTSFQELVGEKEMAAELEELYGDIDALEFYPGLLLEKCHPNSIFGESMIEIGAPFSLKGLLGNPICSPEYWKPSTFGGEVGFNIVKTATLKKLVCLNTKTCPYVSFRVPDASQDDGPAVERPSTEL
Description: (§1) Our synthesized compounds’ COX-1 and COX-2 inhibitory activities were evaluated using the COX (human) Inhibitor Screening Assay Kit supplied by Cayman Chemicals (catalog no. 701230, Ann Arbor, MI, USA). The preparation of reagents and testing procedures were conducted according to the manufacturer’s recommendations. Two concentrations of the inhibitors (10 µM and 50 µM) were dissolved in a minimal amount of dimethyl sulfoxide (DMSO) and incubated with a mixture of COX-1 or COX-2 enzyme and heme in a diluted reaction buffer for 10 min at 37 °C. The reaction was initiated by adding 10 µL of arachidonic acid, followed by a two-minute incubation at 37 °C. The reaction was halted by adding 30 µL of stannous chloride solution to each reaction tube and incubating for 5 min at room temperature. The resulting PGF2α, produced by the COX reactions, was quantified using an enzyme-linked immunosorbent assay (ELISA). The 96-well plate was covered with plastic film and incubated for 18 h at room temperature on an orbital shaker. After incubation, the plate was rinsed five times with a wash buffer. Then, Ellman’s reagent (200 µL) was added, and the plate was incubated for approximately 60–90 min at room temperature until the absorbance of the blank well was in the range of 0.3–0.8 at 405 nm. The plate was read using a Unilab Microplate Reader 6000. The inhibitory percentage was calculated for each concentration tested against the control. The IC50 values were derived from the concentration-inhibition response curve, and the selectivity index (SI) was calculated by dividing the IC50 for COX-2 by the IC50 for COX-1 [52].

COX-2 = target: T3, COX-2 (Homo sapiens, UniProt P35354); experiment: COX (human) Inhibitor Screening Assay, COX-2; format: biochemical; settings: for COX-2 Selectivity: ratio of COX-1 and COX-2 IC50
T3 construct: purchased Cayman Chemicals 701230
T3 sequence (P35354 18-604): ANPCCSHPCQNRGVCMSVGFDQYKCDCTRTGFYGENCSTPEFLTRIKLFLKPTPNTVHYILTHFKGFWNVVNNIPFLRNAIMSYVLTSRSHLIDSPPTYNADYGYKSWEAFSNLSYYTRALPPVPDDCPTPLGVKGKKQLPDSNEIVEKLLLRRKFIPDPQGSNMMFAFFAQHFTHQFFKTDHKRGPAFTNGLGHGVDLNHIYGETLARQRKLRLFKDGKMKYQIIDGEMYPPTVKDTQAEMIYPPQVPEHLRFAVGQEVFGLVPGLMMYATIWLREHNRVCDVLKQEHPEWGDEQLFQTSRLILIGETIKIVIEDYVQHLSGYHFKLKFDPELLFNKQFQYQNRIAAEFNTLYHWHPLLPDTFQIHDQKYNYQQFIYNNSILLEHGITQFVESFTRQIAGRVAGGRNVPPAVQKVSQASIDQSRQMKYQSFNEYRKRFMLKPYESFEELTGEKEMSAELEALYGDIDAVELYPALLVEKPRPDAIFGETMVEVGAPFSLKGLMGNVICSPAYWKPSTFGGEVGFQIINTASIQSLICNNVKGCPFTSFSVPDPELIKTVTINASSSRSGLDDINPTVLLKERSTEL
Description: as §1

For `OC1(c2ccccc2)c2ccccc2Sc2ccc(C(F)(F)F)cc21` (stereo not drawn) [Compound 1, 9-phenyl-2-(trifluoromethyl)-9H-thioxanthen-9-ol], which “% inhibition of DPPH radical (radical scavenging)” value (“% inhibition of DPPH radical” for short) ([1]; 1 µg/mL) is on record?
The value was 7.1 ± 1.2%.

What about the “% inhibition of DPPH radical” value ([1]; 2 µg/mL) of the same compound?
The value was 7.6 ± 2.3%.

What about the “% inhibition of DPPH radical” value ([1]; 3 µg/mL) of the same compound?
Its value is 8.2 ± 1.5%.

And the “% inhibition of DPPH radical” value ([1]; 5 µg/mL)?
The value was 8.6 ± 3.1%.

And the “% inhibition of DPPH radical” value ([1]; 7 µg/mL)?
Its value is 8.9 ± 2.3%.

And the “% inhibition of DPPH radical” value ([1]; 10 µg/mL)?
The value was 9.3 ± 1.6%.

What about the “% inhibition of DPPH radical” value ([1]; 20 µg/mL) of the same compound?
Its value is 9.9 ± 2.5%.

And the “% inhibition of DPPH radical” value ([1]; 30 µg/mL)?
The value was 12.6 ± 3.2%.

What about the “% inhibition of DPPH radical” value ([1]; 50 µg/mL) of the same compound?
The value was 12.9 ± 2.6%.

And the “% inhibition of DPPH radical” value ([1]; 80 µg/mL)?
The value was 16.3 ± 4.3%.

And the IC50 [2]?
The IC50 was 283000 nM.

What about the IC50 (COX-1) of the same compound?
The IC50 was 40.2 ± 0.41 nM.

What about the IC50 (COX-2) of the same compound?
The IC50 was 27.1 ± 0.6 nM.

What about the “COX-2 Selectivity” value (COX-2) of the same compound?
Its value is 1.5.

Which “% inhibition of DPPH radical” value ([1]; 1 µg/mL) does the source give for `OC1(Cc2ccccc2)c2ccccc2Sc2ccc(C(F)(F)F)cc21` (stereo not drawn) [Compound 2, 9-benzyl-2-(trifluoromethyl)-9H-thioxanthen-9-ol] here?
The value was 36.3 ± 2.4%.

What about the “% inhibition of DPPH radical” value ([1]; 2 µg/mL) of the same compound?
Its value is 37.3 ± 3.9%.

And the “% inhibition of DPPH radical” value ([1]; 3 µg/mL)?
The value was 39.3 ± 4.2%.

And the “% inhibition of DPPH radical” value ([1]; 5 µg/mL)?
Its value is 39.5 ± 3.4%.

And the “% inhibition of DPPH radical” value ([1]; 7 µg/mL)?
The value was 39.7 ± 3.6%.

And the “% inhibition of DPPH radical” value ([1]; 10 µg/mL)?
Its value is 40.1 ± 4.9%.

What about the “% inhibition of DPPH radical” value ([1]; 20 µg/mL) of the same compound?
Its value is 40.7 ± 2.5%.

And the “% inhibition of DPPH radical” value ([1]; 30 µg/mL)?
Its value is 40.7 ± 3.8%.

What about the “% inhibition of DPPH radical” value ([1]; 50 µg/mL) of the same compound?
The value was 41.6 ± 5.1%.

What about the “% inhibition of DPPH radical” value ([1]; 80 µg/mL) of the same compound?
The value was 42.2 ± 3.9%.

And the IC50 [2]?
The IC50 was 60200 ± 800 nM.

What about the IC50 (COX-1) of the same compound?
The IC50 was 14 ± 0.64 nM.

What about the IC50 (COX-2) of the same compound?
The IC50 was 74.1 ± 0.48 nM.

And the “COX-2 Selectivity” value (COX-2)?
Its value is 0.2.

With “S-(9-benzyl-2-(trifluoromethyl)-9H-thioxanthen-9-yl)-L-cysteine [Compound 3]” as the compound, how does the “% inhibition of DPPH radical” value ([1]; 1 µg/mL) read?
Its value is 31.3 ± 2.3%.

And the “% inhibition of DPPH radical” value ([1]; 2 µg/mL)?
The value was 36.4 ± 3.5%.

And the “% inhibition of DPPH radical” value ([1]; 3 µg/mL)?
Its value is 39.9 ± 3.6%.

And the “% inhibition of DPPH radical” value ([1]; 5 µg/mL)?
Its value is 39.9 ± 4.1%.

And the “% inhibition of DPPH radical” value ([1]; 7 µg/mL)?
The value was 40.1 ± 3.8%.

What about the “% inhibition of DPPH radical” value ([1]; 10 µg/mL) of the same compound?
The value was 40.2 ± 5.1%.

And the “% inhibition of DPPH radical” value ([1]; 20 µg/mL)?
Its value is 40.4 ± 5.2%.

And the “% inhibition of DPPH radical” value ([1]; 30 µg/mL)?
Its value is 41.9 ± 4.9%.

What about the “% inhibition of DPPH radical” value ([1]; 50 µg/mL) of the same compound?
Its value is 42.9 ± 3.2%.

And the “% inhibition of DPPH radical” value ([1]; 80 µg/mL)?
The value was 46.6 ± 2.4%.

And the “IC50 of the α-Amylase inhibition activity” value [2]?
Its value is “no inhibitory effect”.

And the IC50 (COX-1)?
Its IC50 is 32.5 ± 0.53 nM.

And the IC50 (COX-2)?
The IC50 was 25.9 ± 0.45 nM.

And the “COX-2 Selectivity” value (COX-2)?
Its value is 1.3.

— article PMC12030165, “Bioactivity of Synthesized Trifluoromethyl Thioxanthone Analogues” (Pharmaceuticals, 2025)
